Assay results: patent publication US5849802A, “Fungicidal spirocyclic amines” (American Cyanamid Company, priority 1996, dated 1998)

Columns and labels:
Rhizoctonia solani = experiment: In vitro fungicidal activity: growth inhibition (RHIZ SO); type: cell-based; conditions: 25 ppm, 3-7 days at 22° C., nutrient broth; note: ranges in brackets are in %
Description: (§1) Test compounds are dissolved in acetone then diluted with deionize water (9 parts water: 1 part acetone), and dispersed into cell well plates containing a suspension of ground fungal mycelium in a nutrient broth resulting in a final concentration of 25 ppm of the test compound. Assay plates are incubated for 3-7 days at 22° C. Growth inhibition is measured visually and is rated using the following scale: […]

[1] = tested on: Fusarium oxysporium f. sp. cucumerinum; experiment: In vitro fungicidal activity: growth inhibition (FUS OXC); type: cell-based; conditions: 25 ppm, 3-7 days at 22° C., nutrient broth; note: ranges in brackets are in %
Description: as §1

Septoria nodorum = experiment: In vivo fungicidal activity: Wheat Septoria nodorum Blotch (WSN); conditions: 200 ppm, sprayed before inoculation
Description: Test compounds are dissolved in acetone and diluted with deionized water (95 parts water to 5 parts acetone) containing 0.05% TWEEN 20®, a polyoxyethylene sorbitan monolaurate surfactant manufactured by Atlas Chemical Industries, to give a concentration of 200 ppm.
The plants are sprayed with the test solutions, dried and inoculated with fungi later the same day. When disease symptom development is optimal, the plants are rated for disease control according to the rating scale shown below. Each test contains inoculated treated plants, inoculated untreated plants and a inoculated plants treated with reference fungicides.

[2] = tested on: Erysiphe graminis f. sp. tritici; experiment: In vivo fungicidal activity: Wheat Powdery Mildew (WPM); conditions: 200 ppm, sprayed before inoculation; note: ranges in brackets are in %
Plasmopara viticola = experiment: In vivo fungicidal activity: Grape Downy Mildew (GDM); conditions: 200 ppm, sprayed before inoculation; note: ranges in brackets are in %
Botrytis cinerea = experiment: In vivo fungicidal activity: Pepper Botrytis (PB); conditions: 200 ppm, sprayed before inoculation; note: ranges in brackets are in %
Pythium ultimum = experiment: In vitro fungicidal activity: growth inhibition (PYTH UL); type: cell-based; conditions: 25 ppm, 3-7 days at 22° C., nutrient broth; note: ranges in brackets are in %
Description: as §1

Venturia inaequalis = experiment: In vivo fungicidal activity: Apple Scab (AS); conditions: 200 ppm, sprayed before inoculation; note: ranges in brackets are in %
[3] = tested on: Pseudocercosporella herpotrichoides; experiment: In vitro fungicidal activity: growth inhibition (PSDC HE); type: cell-based; conditions: 25 ppm, 3-7 days at 22° C., nutrient broth; note: ranges in brackets are in %
Description: as §1

[4] = tested on: Pyricularia grisea f. sp. oryzae; type: in vivo; conditions: 200 ppm, sprayed before inoculation, Rice Blast
Cercospora beticola = experiment: In vivo fungicidal activity: Sugar Beet Cercospora (SBC); conditions: 200 ppm, sprayed before inoculation; note: ranges in brackets are in %
Alternaria solani = experiment: In vivo fungicidal activity: Tomato Early Blight (TEB); conditions: 200 ppm, sprayed before inoculation; note: ranges in brackets are in %

Row | SMILES | growth inhibition rating, RHIZ SO (Rhizoctonia solani) | growth inhibition rating, FUS OXC [1] | disease control rating, WSN (Septoria nodorum) | disease control rating, WPM [2] | disease control rating, GDM (Plasmopara viticola) | disease control rating, PB (Botrytis cinerea) | growth inhibition rating, PYTH UL (Pythium ultimum) | disease control rating, AS (Venturia inaequalis) | growth inhibition rating, PSDC HE [3] | disease control rating, RB [4] | disease control rating, SBC (Cercospora beticola) | disease control rating, TEB (Alternaria solani)
1 | CC1CCN(C2CCC3(CCC(C(C)(C)C)CC3)C2)CC1 (stereo not drawn) [Example 1] | 9 (100) | 0 (0) | 7 (90-95) | 7 (90-95) | 9 (100) | 8 (96-99) | 7 (90-99) | 6 (75-89) | 7 (90-99) | 0 (0) | 6 (75-89) | 0 (0)
2 | CCCCC(CC)NC1CCC2(CCC(C(C)(C)C)CC2)C1 (stereo not drawn) [Example 2] | 7 (90-99) | 0 (0) | 0 (0) | 8 (96-99) | 8 (96-99) | 9 (100) | 9 (100) | 8 (96-99) | 9 (100) | 0 (0) | 4 (45-59) | 0 (0)
3 | CC(C)(C)C1CCC2(CCC(NC3CCCCC3)C2)CC1 (stereo not drawn) [Example 3] | 0 (0) | 0 (0) | 8 (96-99) | 8 (96-99) | 5 (60-74) | 9 (100) | 1 (1-29) | 8 (96-99) | 0 (0) | 0 (0) | 6 (75-89) | 8 (96-99)
4 | C[C@@H]1CN(C2CCC3(CCC(C(C)(C)C)CC3)C2)C[C@H](C)O1 (stereo partly drawn) [Example 4] | 0 (0) | 0 (0) | 7 (90-95) | 9 (100) | 0 (0) | 9 (100) | 0 (0) | 0 (0) | 0 (0) | 0 (0) | 7 (90-95) | 0 (0)
5 | CC1CC(C)CN(C2CCC3(CCC(C(C)(C)C)CC3)C2)C1 (stereo not drawn) [Example 5] | 0 (0) | 0 (0) | 4 (45-59) | 8 (96-99) | 5 (60-74) | 9 (100) | 0 (0) | 6 (75-89) | 0 (0) | 0 (0) | 7 (90-95) | 0 (0)
6 | CC1CCCC(NC2CCC3(CCC(C(C)(C)C)CC3)C2)C1 (stereo not drawn) [Example 6] | 9 (100) | 0 (0) | 7 (90-95) | 3 (30-44) | 5 (60-74) | 4 (45-59) | 7 (90-99) | 6 (75-89) | 7 (90-99) | 7 (90-95) | 4 (45-59) | 7 (90-95)
7 | CC1CCC(NC2CCC3(CCC(C(C)(C)C)CC3)C2)CC1 (stereo not drawn) [Example 7] | 9 (100) | 0 (0) | 7 (90-95) | 7 (90-95) | 3 (30-44) | 7 (90-95) | 7 (90-99) | 4 (45-59) | 7 (90-99) | 0 (0) | 8 (96-99) | 4 (45-59)
8 | CC(C)CNC1CCC2(CCC(C(C)(C)C)CC2)C1 (stereo not drawn) [Example 8] | 9 (100) | 0 (0) | 4 (45-59) | 5 (60-74) | 0 (0) | 6 (75-89) | 7 (90-99) | 8 (96-99) | 7 (90-99) | 0 (0) | 6 (75-89) | 0 (0)
9 | CN(C1CCCCC1)C1CCC2(CCC(C(C)(C)C)CC2)C1 (stereo not drawn) [Example 9] | 9 (100) | 0 (0) | 6 (75-89) | 7 (90-95) | 2 (15-29) | 8 (96-99) | 7 (90-99) | 8 (96-99) | 7 (90-99) | 0 (0) | 4 (45-59) | 0 (0)
10 | CC(C)(C)C1CCC2(CCC(NC3CCCC3)C2)CC1 (stereo not drawn) [Example 10] | 9 (100) | 0 (0) | 7 (90-95) | 6 (75-89) | 5 (60-74) | 6 (75-89) | 9 (100) | 8 (96-99) | 9 (100) | 0 (0) | 6 (75-89) | 2 (15-29)
11 | CC(C)(C)C1CCC2(CCC(NC3CCCCCC3)C2)CC1 (stereo not drawn) [Example 11] | 9 (100) | 0 (0) | 6 (75-89) | 6 (75-89) | 6 (75-89) | 8 (96-99) | 0 (0) | 7 (90-95) | 9 (100) | 0 (0) | 5 (60-74) | 5 (60-74)
12 | CC(C)(C)C1CCC2(CCC(NCc3ccc(Cl)cc3)C2)CC1 (stereo not drawn) [Example 12] | 9 (100) | 0 (0) | 0 (0) | 5 (60-74) | 0 (0) | 7 (90-95) | 0 (0) | 7 (90-95) | 9 (100) | 0 (0) | 0 (0) | 0 (0)
